Results published in BindingDB's records for doi:10.1021/jm000484+ (Abbott Laboratories, 2001).

What was measured:
[1] = In vitro immunosuppression in stimulated T cells expressing Voltage-gated potassium channel subunit Kv1.3
[2] = In vitro immunosuppression in stimulated T cells expressing Voltage-gated potassium channel subunit Kv1.3; Range is 1-10

EC50 [1]	IC50 [2]	Structure (SMILES)
1000 nM	–	CCC/N=c1\ccn(Cc2ccccc2)c2cc(Cl)ccc12
–	1000 nM	CCNC(=O)c1cc(/C=C/CCc2ccccc2)ccc1-c1ccc(Cl)cc1 [4'-Chloro-4-((E)-4-phenyl-but-1-enyl)-biphenyl-2-carboxylic acid ethylamide]
